Measurements: patent US4361563A, “Pyridazinone-substituted benzimidazoles and salts” (priority 1978, dated 1982)

How the values were obtained:
[1] = test system: cats; assay: Determination of the hypotensive and positive inotropic activity in the cat; assay type: in vivo; settings: for change in vivo at 0.1 mg/kg / change in vivo at 0.5 mg/kg: Felis catus, iv, read-out: Change of dp/dt in %
Experimental: TEST 2. DETERMINATION OF THE HYPOTENSIVE AND POSITIVE INOTROPIC ACTIVITY IN THE CAT
The tests were performed in cats which were anesthetized with pentobarbital sodium (40 mg/kg i.p.). The animals breathed spontaneously. The arterial blood pressure was measured in the aorta abdominalis by a Statham pressure transducer (P 23 Dc). The positive inotropic effect was determined by measuring the pressure in the left […] by means of a catheter tipmanometer (Millar PC 350 A). This contractility parameter dp/dtmax was registered by means of an analog differentiating circuit. The substances under test were injected into a vena femoralis. Physiological sodium […] solution or polydiol 200 was used as solvent.

[2] = Acute toxicity, single oral dose; assay type: in vivo; settings: mouse, in vivo, po; read-out: Acute toxicity mg/kg p.o.
Experimental: (§1) The acute toxicity of the substances tested was determined in white mice after oral adminstration of a single dose (observation time: 14 days).

[3] = test system: white mice; assay: Acute toxicity, single oral dose; assay type: in vivo; settings: white mice, 14 days observation
Experimental: as §1

[4] = test system: thrombocyte aggregation; assay: Determination of the thrombocyte aggregation according to Born and Cross (collagen-provoked, platelet-rich plasma); assay type: cell-based, healthy test persons; settings: collagen-induced aggregation
Experimental: TEST 1. DETERMINATION OF THE THROMBOCYTE AGGREGATION ACCORDING TO BORN AND CROSS [J. PHYSIOL. 170, 397 (1964)].
The thrombocyte aggregation was measured in platelet-rich plasma of healthy test persons. The decrease of the optical density was photometrically measured and recorded after addition of commercial collagen (Sigma, St. Louis, Mo., USA) which contained […] of collagen-fibrils per ml. The velocity of aggregation (Vmax) was determined by the angle of inclination of the density curve. The point of the curve, where the most light was transmitted, served for the determination of the optical density (o.d.). To provoke maximum aggregation, approximately 0.01 ml of the collagen solution was added to 1 ml of platelet-rich plasma.

[5] = 0.5 mg/kg i.v., initial phase before decrease

In the case of `CC1CC(=O)NN=C1c1ccc2[nH]c(C(F)(F)F)nc2c1` (stereo not drawn) [B, 2-Trifluoromethyl-5(6)-(5-methyl-3-oxo-4,5-dihydro-2H-6-pyridazinyl)-benzimidazole], the “Change of blood pressure, first value of the pair (before the slash)” value (shortened to “Change of blood pressure … (before the slash)”) ([1]; 0.1 mg/kg i.v.) is reported as -65 mgm Hg, the “Change of blood pressure, second value of the pair (after the slash)” value (“Change of blood pressure … (after the slash)” for short) ([1]; 0.1 mg/kg i.v.) is reported as -35 mgm Hg and the “Duration of action” value ([1]; 0.1 mg/kg i.v.) is reported as greater than 55 min. The “Change of blood pressure … (before the slash)” value ([1]; 0.5 mg/kg i.v.) was -49 mgm Hg, the “Change of blood pressure … (after the slash)” value ([1]; 0.5 mg/kg i.v.) was -43 mgm Hg and the “Duration of action” value ([1]; 0.5 mg/kg i.v.) was greater than 99 min. It also gave a change in vivo at 0.1 mg/kg ([1]; 0.1 mg/kg i.v.) of 91%, a change in vivo at 0.5 mg/kg ([1]; 0.5 mg/kg i.v.) of 143% and an LD50 at 336 h [2] greater than 450 mg/kg. The animals died ([3]; 450 mg/kg p.o.) was 0 out of 6 and the EC50 [4] was 100 nM.

In the case of `CC1CC(=O)NN=C1c1ccc2[nH]cnc2c1` (stereo not drawn) [C, 5(6)-(5-Methyl-3-oxo-4,5-dihydro-2H-6-pyridazinyl)-benzimidazole], the “Change of blood pressure … (before the slash)” value ([1]; 0.5 mg/kg i.v.) is reported as -55 mgm Hg, the “Change of blood pressure … (after the slash)” value ([1]; 0.5 mg/kg i.v.) is reported as -48 mgm Hg and the “Duration of action” value ([1]; 0.5 mg/kg i.v.) is reported as greater than 172 min. It also gave a change in vivo at 0.5 mg/kg ([1]; 0.5 mg/kg i.v.) of 159% and an EC50 [4] of 120 nM.

In the case of `Cc1nc2cc(C3=NNC(=O)CC3C)ccc2[nH]1` (stereo not drawn) [Compound A, 2-Methyl-5(6)-(5-methyl-3-oxo-4,5-dihydro-2H-6-pyridazinyl)-benzimidazole], the “Change of blood pressure … (before the slash)” value ([1]; 0.1 mg/kg i.v.) is reported as -26 mgm Hg, the “Change of blood pressure … (after the slash)” value ([1]; 0.1 mg/kg i.v.) is reported as -24 mgm Hg and the “Duration of action” value ([1]; 0.1 mg/kg i.v.) is reported as greater than 24 min. For the same compound, the “Change of blood pressure … (before the slash)” value ([1]; 0.5 mg/kg i.v.) was -35 mgm Hg, the “Change of blood pressure … (after the slash)” value ([1]; 0.5 mg/kg i.v.) was -42 mgm Hg and the “Duration of action” value ([1]; 0.5 mg/kg i.v.) was greater than 187 min. For the same compound, the change in vivo at 0.1 mg/kg ([1]; 0.1 mg/kg i.v.) was 53%, the change in vivo at 0.5 mg/kg ([1]; 0.5 mg/kg i.v.) was 116% and the LD50 at 336 h [2] was greater than 600 mg/kg. For the same compound, the animals died ([3]; 600 mg/kg p.o.) was 1 out of 3 and the EC50 [4] was 10 nM.

For `COc1ccc(-c2nc3cc(C4=NNC(=O)CC4C)ccc3[nH]2)c(OC)c1` (stereo not drawn) [Compound E, 2-(2,4-Dimethoxy-phenyl)-5(6)-(5-methyl-3-oxo-4,5-dihydro-2H-6-pyridazinyl)-benzimidazole], the “Change of blood pressure … (before the slash)” value ([1]; 0.5 mg/kg i.v.) was -28 mgm Hg, the “Change of blood pressure … (after the slash)” value ([1]; 0.5 mg/kg i.v.) was -33 mgm Hg and the “Duration of action” value ([1]; 0.5 mg/kg i.v.) was greater than 55 min. For the same compound, the change in vivo at 0.5 mg/kg ([1]; 0.5 mg/kg i.v.) was 89%.

In the case of `CC1CC(=O)NN=C1c1ccc2[nH]c(-c3ccccc3F)nc2c1` (stereo not drawn) [D, 2-(2-Fluoro-phenyl)-5(6)-(5-methyl-3-oxo-4,5-dihydro-2H-6-pyridazinyl)-benzimidazole], the “Change of blood pressure … (after the slash)” value ([1]; 0.5 mg/kg i.v.) is reported as -10 mgm Hg, the “Duration of action” value ([1]; 0.5 mg/kg i.v.) is reported as greater than 69 min and the change in vivo at 0.5 mg/kg ([1]; 0.5 mg/kg i.v.) is reported as 107%. For the same compound, the LD50 at 336 h [2] was greater than 600 mg/kg and the animals died ([3]; 600 mg/kg p.o.) was 0 out of 6.

With `CSc1nc2cc(C3=NNC(=O)CC3C)ccc2[nH]1` (stereo not drawn) [F, 2-Methylmercapto-5(6)-(5-methyl-3-oxo-4,5-dihydro-2H-6-pyridazinyl)-benzimidazole] the “Change of blood pressure … (before the slash)” value ([1]; 0.1 mg/kg i.v.) was -36 mgm Hg, the “Change of blood pressure … (after the slash)” value ([1]; 0.1 mg/kg i.v.) was -40 mgm Hg and the “Duration of action” value ([1]; 0.1 mg/kg i.v.) was greater than 28 min. The “Change of blood pressure … (before the slash)” value ([1]; 0.5 mg/kg i.v.) was -48 mgm Hg, the “Change of blood pressure … (after the slash)” value ([1]; 0.5 mg/kg i.v.) was -66 mgm Hg and the “Duration of action” value ([1]; 0.5 mg/kg i.v.) was greater than 32 min. The change in vivo at 0.1 mg/kg ([1]; 0.1 mg/kg i.v.) was 51% and the change in vivo at 0.5 mg/kg ([1]; 0.5 mg/kg i.v.) was 50%.

For `COc1ccc(-c2nc3ccc(C4=NNC(=O)CC4C)cc3[nH]2)cc1` (stereo not drawn) [G, 2-(4-Methoxy-phenyl)-5(6)-(5-methyl-3-oxo-4,5-dihydro-2H-6-pyridazinyl)-benzimidazole], the “Change of blood pressure … (after the slash)” value ([1]; 0.1 mg/kg i.v.) was 0 mgm Hg, the “Duration of action” value ([1]; 0.1 mg/kg i.v.) was greater than 26 min and the “Change of blood pressure … (before the slash)” value ([1]; 0.5 mg/kg i.v.) was -18 mgm Hg. The “Change of blood pressure … (after the slash)” value ([1]; 0.5 mg/kg i.v.) was -18 mgm Hg, the “Duration of action” value ([1]; 0.5 mg/kg i.v.) was greater than 72 min and the change in vivo at 0.1 mg/kg ([1]; 0.1 mg/kg i.v.) was 23%. The change in vivo at 0.5 mg/kg ([1]; 0.5 mg/kg i.v.) was 64%, the LD50 at 336 h [2] was roughly 600 mg/kg and the animals died ([3]; 600 mg/kg p.o.) was 3 out of 6. For the same compound, the EC50 [4] was 80 nM.

For `Cc1ccc(-c2nc3cc(C4=NNC(=O)CC4C)ccc3[nH]2)cc1` (stereo not drawn) [H, 2-(4-Methyl-phenyl)-5(6)-(5-methyl-3-oxo-4,5-dihydro-2H-6-pyridazinyl)-benzimidazole], the “Change of blood pressure … (before the slash)” value ([1]; 0.5 mg/kg i.v.) was -10 mgm Hg, the “Change of blood pressure … (after the slash)” value ([1]; 0.5 mg/kg i.v.) was -10 mgm Hg and the “Duration of action” value ([1]; 0.5 mg/kg i.v.) was greater than 69 min. The “duration of decrease of blood pressure” value ([1]; 0.5 mg/kg i.v., decrease after 1 minute) was greater than 50 min, the “initial increase of blood pressure, first value of the pair” value [1, 5] was 33 mgm Hg and the “initial increase of blood pressure, second value of the pair” value [1, 5] was 18 mgm Hg. The change in vivo at 0.5 mg/kg ([1]; 0.5 mg/kg i.v.) was 118%, the LD50 at 336 h [2] was greater than 600 mg/kg and the animals died ([3]; 600 mg/kg p.o.) was 0 out of 6.
